{
  "source": "patent US11464768B2",
  "about": "“Pimavanserin alone or in combination for use in the treatment of Alzheimer's disease psychosis” (ACADIA Pharmaceuticals Inc., priority 2016, dated 2022)",
  "key": {"ADP patients": {"system": "ADP patients", "test": "Twelve-week randomized, double-blind, placebo-controlled study in ADP patients: NPI-NH psychosis score (Domains A and B)", "type": "in vivo, human", "conditions": "for improvement in psychosis at day 43 / improvement in psychosis at day 43 (NPI-NH Psychosis subscale): Table 2 Delta; for NPI-NH PSYCHOSIS SCORE at day 43, Effect Size: pimavanserin vs placebo", "source_text": "To determine the score for a given domain, the caregivers rate frequency and severity of the resident's behavior for that particular domain. The frequency is rated on a 0-4 point scale. For example, the frequency is rated as a) 0 for not present; b) 1 for occasional; c) 2 for often; d) 3 for frequent; and e) 4 for very frequent occurrence of the behavior in question. The severity is rated on a 1-3 point scale. For example, the severity is rated as a) 1 for mild; b) 2 for moderate; and 3 for severe. The score of each domain is determined by multiplying the frequency rating score by the severity rating score. The score of each domain ranges from 0 to 12.\nA psychosis score on the psychosis subscale is the total score of the score of delusions (Domain A) and hallucinations (Domain B). For example, when the delusions score (Domain A) is 4 and the hallucinations score (Domain B) is 6, the psychosis score is 10. The psychosis score typically ranges from 0 to 24.\nA twelve-week, randomized, double-blind, placebo-controlled, single-center study was conducted in ADP patients in nursing homes. A purpose of the study was to evaluate the safety and efficacy of 34 mg pimavanserin compared to placebo in the treatment of ADP.\nA total of 181 nursing home patients were enrolled in the study and randomized on a one-to-one basis to receive either 34 mg of pimavanserin or placebo once daily for twelve weeks, following a three-week screening period including brief psycho-social therapy. Patients with Alzheimer's disease (AD) are defined by the National Institute of Neurological and Communicative Disorders and Stroke-Alzheimer's Disease and Related Disorder Association (NINCDS-ADRDA) criteria for possible or probable AD (McKhann et al., Neuro., 1984, vol. 34, 939-944.) The mean age of patients in the study was 86 years.\nAfter completing initial Screening Visit procedures (SV1), patients entered a 3-week screening period with antipsychotic medication washout. During the screening period, the patients received brief psychosocial therapy (BPST; Ballard et al., 2009) following best practice guidelines and safety assessments were performed. After the first Screening Visit (SV1), there were two additional contacts at weekly intervals with the BPST caregiver by phone (SV2 and SV3) to support the patient and the BPST caregiver in this screening phase. Safety assessments were also collected during this phase. At the discretion of the investigator and upon consultation with the Medical Monitor, patients were randomized into the double-blind phase of the study at any time during the screening period if there is a substantial worsening of psychotic symptoms.\nPatients were randomized to one of two treatment groups in a 1:1 ratio (pimavanserin 34 mg or placebo), stratified by Baseline Mini-Mental State Examination (MMSE) total score and Neuropsychiatric Inventory-Nursing Home Version (NPI-NH) psychosis score (Domains A and B) (4 levels: MMSE<6 and NPI-NH<12, MMSE>6 and NPI-NH<12, MMSE<6 and NPI-NH>12, MMSE>6 and NPI-NH>12), and entered a 12 week double-blind treatment period.\nNursing home staff administered the study drug to the patient each morning as a single oral dose (2×17 mg tablets) beginning within 24 hours of completion of all baseline assessments (Day 1). During the double-blind treatment period, study visits were performed as follows: Baseline, Day 15, Day 29, Day 43, Day 64, and Day 85 (or early termination). A follow-up telephone safety visit occurred 4 weeks after the last dose of study medication. The NPI-NH psychosis subscale (Delusions+Hallucinations domains) was used to assess psychosis. Behavioral symptoms were assessed using the NPI-NH Total and Individual Behavioral Domain scores and the Cohen-Mansfield Agitation Inventory—Short Form (CMAI-SF). […]"}, "[1]": {"system": "hyperactivity induced by the N-methyl-D-aspartate antagonist MK-801", "conditions": "mice; effective in these models at oral doses of 3 and 10 mg/kg; cited from earlier work"}},
  "data": [
    {"smiles": "CC(C)COc1ccc(CNC(=O)N(Cc2ccc(F)cc2)C2CCN(C)CC2)cc1", "note": "[Pimavanserin, N-(1-methylpiperidin-4-yl)-N-(4-fluorophenylmethyl)-N′-(4-(2-methylpropyloxy)phenylmethyl)carbamide]", "values": [
      {"measurement": "durability of efficacy", "setting": "ADP patients; 34 mg once daily, 12 week study", "result": "demonstrated an efficacy throughout the 12 week study"},
      {"measurement": "NPI-NH PSYCHOSIS SCORE at day 43, Pimavanserin Group (change from baseline)", "setting": "ADP patients; 34 mg once daily, subgroup Baseline Agitation/Aggression Score <6 (n = 85), post-hoc analysis", "result": "−1.40"},
      {"measurement": "NPI-NH PSYCHOSIS SCORE at day 43, Pimavanserin Group (change from baseline)", "setting": "ADP patients; 34 mg once daily, subgroup Baseline Agitation/Aggression Score ≥6 (n = 93), post-hoc analysis", "result": "−6.09"},
      {"measurement": "NPI-NH PSYCHOSIS SCORE at day 43, Pimavanserin Group (change from baseline)", "setting": "ADP patients; 34 mg once daily, subgroup Baseline NPI-NH Psychosis Score <12 (n = 57), negative = improvement", "result": "−0.58"},
      {"measurement": "NPI-NH PSYCHOSIS SCORE at day 43, Pimavanserin Group (change from baseline)", "setting": "ADP patients; 34 mg once daily, subgroup Baseline NPI-NH Psychosis Score ≥12 & Agitation/Aggression Score ≥6 (n = 38), post-hoc analysis", "result": "−10.93"},
      {"measurement": "NPI-NH PSYCHOSIS SCORE at day 43, Pimavanserin Group (change from baseline)", "setting": "ADP patients; 34 mg once daily, subgroup Baseline NPI-NH Psychosis score ≥12 (n = 121), negative = improvement", "result": "−10.15"},
      {"measurement": "NPI-NH PSYCHOSIS SCORE at day 43, Pimavanserin Group (change from baseline)", "setting": "ADP patients; 34 mg once daily, subgroup No Prior Anti-psychotic use (n = 162)", "result": "−4.15"},
      {"measurement": "NPI-NH PSYCHOSIS SCORE at day 43, Pimavanserin Group (change from baseline)", "setting": "ADP patients; 34 mg once daily, subgroup Prior Anti-psychotic use (n = 16)", "result": "−1.52"},
      {"measurement": "improvement in psychosis, NPI-NH Psychosis score (combined hallucinations and delusions domains), primary endpoint", "setting": "ADP patients; 34 mg once daily, week 6, all patients, baseline mean 9.52, placebo 1.93 point, p=0.0451", "result": 3.76, "unit": "point"},
      {"measurement": "improvement in psychosis at day 43", "setting": "ADP patients; baseline NPI-NH Psychosis score of 12 or greater and baseline Agitation/Aggression score of 6 or greater, p-value=0.0010", "result": 7.18},
      {"measurement": "effect on NPI-NH psychosis score (in words)", "setting": "ADP patients; baseline NPI-NH psychosis score of 12 or greater and baseline Agitation/Aggression score of 6 or greater, p=0.0010", "result": "effectively reduced"},
      {"measurement": "improvement in psychosis at day 43", "setting": "ADP patients; patients having a baseline NPI-NH Agitation/Aggression score of 6 or greater, p-value=0.0010", "result": 4.41, "unit": "point"},
      {"measurement": "effect on NPI-NH psychosis score (in words)", "setting": "ADP patients; patients having a baseline NPI-NH Agitation/Aggression score of 6 or greater, p=0.001", "result": "effectively reduced"},
      {"measurement": "aggravating in psychosis at day 43", "setting": "ADP patients; patients having a baseline NPI-NH Agitation/Aggression score of less than 6, p-value=NS", "result": 0.42},
      {"measurement": "improvement in psychosis at day 43 (NPI-NH Psychosis subscale)", "setting": "ADP patients; patients having a baseline NPI-NH Psychosis score of 12 or greater, p-value=0.0114", "result": 4.43, "unit": "point"},
      {"measurement": "effect on NPI-NH psychosis score (in words)", "setting": "ADP patients; patients having a baseline NPI-NH psychosis score of 12 or greater, p=0.0114", "result": "effectively reduced"},
      {"measurement": "improvement in psychosis at day 43 (NPI-NH Psychosis subscale)", "setting": "ADP patients; patients having a baseline NPI-NH psychosis score of less than 12, p-value=NS", "result": 0.42},
      {"measurement": "improvement in psychosis at day 43", "setting": "ADP patients; patients that had anti-psychotic use prior to the baseline measurement on day 0, p-value=NS", "result": 6.53, "unit": "point"},
      {"measurement": "effect on NPI-NH psychosis score (in words)", "setting": "ADP patients; patients who had prior anti-psychotic use", "result": "effectively reduced"},
      {"measurement": "reduction of mean NPI-NH Psychosis score from baseline", "setting": "ADP patients; pimavanserin arm, baseline NPI-NH Psychosis score of 12 or greater, baseline 15.30, day 43", "result": 66.3, "unit": "%"},
      {"measurement": "mean NPI-NH Psychosis score at day 43", "setting": "ADP patients; pimavanserin arm, baseline NPI-NH Psychosis score of 12 or greater, baseline score 15.30", "result": 5.15},
      {"measurement": "NPI-NH PSYCHOSIS SCORE at day 43, Effect Size", "setting": "ADP patients; subgroup Baseline Agitation/Aggression Score <6 (n = 85), post-hoc", "result": 0.122},
      {"measurement": "NPI-NH PSYCHOSIS SCORE at day 43, Effect Size", "setting": "ADP patients; subgroup Baseline Agitation/Aggression Score ≥6 (n = 93), post-hoc", "result": "−0.778"},
      {"measurement": "NPI-NH PSYCHOSIS SCORE at day 43, Effect Size", "setting": "ADP patients; subgroup Baseline NPI-NH Psychosis Score <12 (n = 57)", "result": "−0.077"},
      {"measurement": "NPI-NH PSYCHOSIS SCORE at day 43, Effect Size", "setting": "ADP patients; subgroup Baseline NPI-NH Psychosis Score ≥12 & Agitation/Aggression Score ≥6 (n = 38), post-hoc", "result": "−1.225"},
      {"measurement": "NPI-NH PSYCHOSIS SCORE at day 43, Effect Size", "setting": "ADP patients; subgroup Baseline NPI-NH Psychosis score ≥12 (n = 121)", "result": "−0.734"},
      {"measurement": "NPI-NH PSYCHOSIS SCORE at day 43, Effect Size", "setting": "ADP patients; subgroup No Prior Anti-psychotic use (n = 162)", "result": "−0.351"},
      {"measurement": "NPI-NH PSYCHOSIS SCORE at day 43, Effect Size", "setting": "ADP patients; subgroup Prior Anti-psychotic use (n = 16)", "result": "−0.905"},
      {"measurement": "NPI-NH PSYCHOSIS SCORE at day 43, Delta (difference between placebo group and pimavanserin group in change from baseline)", "setting": "ADP patients; subgroup Baseline Agitation/Aggression Score <6 (n = 85), post-hoc, P-Value NS", "result": 0.68},
      {"measurement": "NPI-NH PSYCHOSIS SCORE at day 43, Delta (difference between placebo group and pimavanserin group in change from baseline)", "setting": "ADP patients; subgroup Baseline Agitation/Aggression Score ≥6 (n = 93), post-hoc, P-Value 0.0010", "result": "−4.41"},
      {"measurement": "NPI-NH PSYCHOSIS SCORE at day 43, Delta (difference between placebo group and pimavanserin group in change from baseline)", "setting": "ADP patients; subgroup Baseline NPI-NH Psychosis Score <12 (n = 57), P-Value NS", "result": "−0.42"},
      {"measurement": "NPI-NH PSYCHOSIS SCORE at day 43, Delta (difference between placebo group and pimavanserin group in change from baseline)", "setting": "ADP patients; subgroup Baseline NPI-NH Psychosis Score ≥12 & Agitation/Aggression Score ≥6 (n = 38), post-hoc, P-Value 0.0010", "result": "−7.18"},
      {"measurement": "NPI-NH PSYCHOSIS SCORE at day 43, Delta (difference between placebo group and pimavanserin group in change from baseline)", "setting": "ADP patients; subgroup Baseline NPI-NH Psychosis score ≥12 (n = 121), P-Value 0.0114", "result": "−4.43"},
      {"measurement": "NPI-NH PSYCHOSIS SCORE at day 43, Delta (difference between placebo group and pimavanserin group in change from baseline)", "setting": "ADP patients; subgroup No Prior Anti-psychotic use (n = 162), P-Value 0.0374", "result": "−1.90"},
      {"measurement": "NPI-NH PSYCHOSIS SCORE at day 43, Delta (difference between placebo group and pimavanserin group in change from baseline)", "setting": "ADP patients; subgroup Prior Anti-psychotic use (n = 16), P-Value NS", "result": "−6.53"},
      {"measurement": "treatment effect in patients with a concomitant Selective Serotonin Reuptake Inhibitor (SSRI) use", "setting": "ADP patients; subgroup analysis, compared with no concomitant SSRI use", "result": "treatment effect larger than those with no concomitant SSRI use"},
      {"measurement": "efficacious effect relative to placebo", "setting": "ADP patients; worded as an embodiment", "result": "about 2 times"},
      {"measurement": "attenuation of hyperactivity induced by MK-801", "setting": "[1]", "result": "active"}
    ]}
  ]
}
